{
  "source": "patent US20150354006A1",
  "about": "“MARKERS FOR ACUTE LYMPHOBLASTIC LEUKEMIA” (Novartis AG, priority 2012, published 2015)",
  "key": {"[1]": {"tested_on": "NSD2", "assay": "Western blot of NSD2 knockdown by inducible shRNA in ALL cell lines", "assay_type": "cell-based, human", "details": "induced with doxycycline, FIG. 13", "description": "To test the hypothesis that the NSD2 E1099K mutation is important in the pathogenesis of ALL cells, several shRNA knockdown experiments were done. In these experiments, NSD2 shRNA sequences were cloned into pLKO-Tet-On vectors with the H1 promoter or U6 promoter. shRNA lentivitus was generated as described above. Cell lines were infected and selected by puromycin. All tet inducible shRNA cell lines are cultured using tet system approved FBS (Clontech, Cat#: 631106, Mountain View, Calif.). NSD2 Tet-inducible cellular proliferation assay was set up as the following. Cultured cells were placed at 0.2 million cells/ml in 10 ml and split into two wells (5 ml/well) in a 6-well plate. Doxycycline (100 ng/ml final) was added to one well at assay initiation and every 2-3 days to induce NSD2 Tet-inducible shRNAs. On days 4 and 8 the assayed cells (with and without doxycycline) were counted for viability and cell concentration (10^6 cell/ml) with Vi-cell. Assayed cells were then reset to 0.2×10^6 cells/ml in 5 ml every 4 days to keep the cells proliferating in log-phase. On day 8, 1 million cells were collected from assayed cells for Western blot analysis. The shRNA sequences used in the experiments were the following, and are used with this nomenclature in FIG. 13. […]"}, "[2]": {"tested_on": "SEM cells", "assay": "NSD2 Tet-inducible cellular proliferation assay, SEM cells", "assay_type": "cell-based", "details": "SEM cells (E1099K), shRNA induced vs U6-empty control, FIG. 14", "description": "(§1) To test the hypothesis that the NSD2 E1099K mutation is important in the pathogenesis of ALL cells, several shRNA knockdown experiments were done. In these experiments, NSD2 shRNA sequences were cloned into pLKO-Tet-On vectors with the H1 promoter or U6 promoter. shRNA lentivitus was generated as described above. Cell lines were infected and selected by puromycin. All tet inducible shRNA cell lines are cultured using tet system approved FBS (Clontech, Cat#: 631106, Mountain View, Calif.). NSD2 Tet-inducible cellular proliferation assay was set up as the following. Cultured cells were placed at 0.2 million cells/ml in 10 ml and split into two wells (5 ml/well) in a 6-well plate. Doxycycline (100 ng/ml final) was added to one well at assay initiation and every 2-3 days to induce NSD2 Tet-inducible shRNAs. On days 4 and 8 the assayed cells (with and without doxycycline) were counted for viability and cell concentration (10^6 cell/ml) with Vi-cell. Assayed cells were then reset to 0.2×10^6 cells/ml in 5 ml every 4 days to keep the cells proliferating in log-phase. On day 8, 1 million cells were collected from assayed cells for Western blot analysis. The shRNA sequences used in the experiments were the following, and are used with this nomenclature in FIG. 13.\n(§2) The shRNAs described above were then used in a cell proliferation assay. […]"}, "[3]": {"tested_on": "JVM-3 line", "assay": "NSD2 Tet-inducible cellular proliferation assay, JVM-3 cells", "assay_type": "cell-based", "details": "JVM-3 line (no E1099K), shRNA induced vs U6-empty control, FIG. 14", "description": "as §1, §2"}, "[4]": {"tested_on": "H3K36me2 and H3K27me3 methylation", "assay": "Western blot of histone H3 methylation status after shRNA knockdown in SEM cells", "assay_type": "cell-based", "details": "NSD2 E1099K knocked down, FIG. 16", "description": "NSD2 shRNA sequences were cloned into pLKO-Tet-On vectors with H1 promoter or U6 promoter. shRNA lentivitus was generated as described above. Cell lines were infected and selected by puromycin. All tet inducible shRNA cell lines are cultured using tet system approved FBS (Clontech, Cat#: 631106). The NSD2 Tet-inducible cellular proliferation assay was set up as follows. Cultured cells were placed at 0.2 million cells/ml in 10 ml and split into two wells (5 ml/well) in 6-well plate. Doxycycline (100 ng/ml final) was added to one well at assay initiation and every 2-3 days to induce NSD2 Tet-inducible shRNAs. On days 4 and 8 the assayed cells (with and without doxycycline) were counted for viability and cell concentration (10^6 cell/ml) with Vi-cell. Assayed cells were then reset to 0.2×10^6 cells/ml in 5 ml every 4 days to keep the cells proliferating in log-phase. On days 8, 1 million cells were collected from assayed cells for Western blot analysis. The shRNA sequences used in the experiments were the V17 (SEQ ID NO. 9) and 9A5 (SEQ ID NO. 10) as described in Example 11 above.\nFor example, this is clearly seen in SEM cells wherein NSD2 E1099K is knocked down with […]. The amount of NSD2 present is very low, as is H3K36me2 methylation."}, "[5]": {"tested_on": "KMS-11 cells", "assay": "KMS11-luciferase intravenous multiple myeloma mouse model with doxycycline-inducible NSD2 shRNA", "assay_type": "in vivo, SCID-beige mice", "description": "Six- to eight-week-old female SCID-beige mice (Vital River, Beijing, China) were injected intravenously with 10^7 KMS-11 cells stably transduced with inducible NSD2 shRNA (sh4: 5′ ACATGCTCACTATAGACAA′3 (SEQ ID NO:8)) and tagged with luciferase. The injection of KMS11 cells was in 100 μl PBS with 50% Matrigel, with 8-10 mice per group/treatment. To induce the shRNA expression, mice were fed with water containing 5% sucrose and 0.2 mg/ml doxycycline. Images were taken weekly (with 200 μl/mouse D-luciferase intraperitoneal injection), and pathology such as paralysis was monitored."}},
  "data": [
    {"substance": "9A5 shRNA: NSD2 shRNA 5' GAATAAGCCTTACGGGAAA 3' (SEQ ID NO. 10), targets NSD2 isoforms containing the SET domain", "values": [
      {"measurement": "expression of NSD2 and MMSET1", "setting": "[1]", "result": "capable of reducing expression of NSD2 and MMSET1"},
      {"measurement": "reduction of cell proliferation", "setting": "[2]", "result": "about 60%"},
      {"measurement": "reduction of cell proliferation", "setting": "[3]", "result": "about 15%"},
      {"measurement": "H3K27me3 methylation", "setting": "[4]", "result": "robust H3K27me3 methylation"},
      {"measurement": "amount of NSD2 and H3K36me2 methylation", "setting": "[4]", "result": "very low"}
    ]},
    {"substance": "sh4: inducible NSD2 shRNA, 5' ACATGCTCACTATAGACAA 3' (SEQ ID NO:8)", "values": [
      {"measurement": "tumor growth", "setting": "[5]; KMS11-luciferase with inducible NSD2 shRNA, induction with doxycycline for 29 days, FIG. 3A", "result": "greatly inhibited tumor growth"},
      {"measurement": "luciferase activity of tumors", "setting": "[5]; time course with vs without doxycycline induction, FIG. 3B", "result": "greatly reduced"}
    ]}
  ]
}
